The text below walks through data of patent US12440531B2, “Composition for use in improving endothelial function by enhancing flow mediated dilation” (SOCIETE DES PRODUITS NESTLE S.A., priority 2019, dated 2025).

The test system of assay [1] is L. johnsonii esterase. Description: Substrate specificity with 4-nitrophenyl derivatives. The settings on record: substrate 0.2 mM, sodium phosphate buffer pH 6.0, 37° C., 10 min, absorbance 410 nm. It is filed as biochemical, Lactobacillus johnsonii. The protocol: The substrate specificity of L. johnsonii esterase was studied using different 4-nitrophenyl derivatives. […] The reactions were carried out in sodium phosphate buffer pH 6.0 at 37° C. for 10 min. The substrates were used at concentration of 0.2 mM and enzyme at 0.01 U/mg substrate. The measures were monitored each 30 seconds. The absorbance was set at 410 nm.

Assay [2] relates to human vascular function. The settings on record: pure 5-CQA at 450 mg and 900 mg, 24 subjects; cited from earlier work.

`CCCC(=O)Oc1ccc([N+](=O)[O-])cc1` [4-nitrophenyl butyrate]: in assay [1], the “transformation as substrate of L. johnsonii esterase” value is “best substrate”.

For the compound `CCCCCCCCCCCC(=O)Oc1ccc([N+](=O)[O-])cc1` [4-nitrophenyl dodecanoate], in assay [1], the “transformation as substrate of L. johnsonii esterase” value is given as “no transformation”.

For the compound `O=C(/C=C/c1ccc(O)c(O)c1)O[C@@H]1C[C@](O)(C(=O)O)C[C@@H](O)[C@H]1O` [Dose 5-CQA, 5-CQA], the “effect on human vascular function” value in assay [2] is “did not show a significant effect”.
